Laboratory results reported in US11149037B2, “Pyrazole MAGL inhibitors” (H. Lundbeck A/S, priority 2017, dated 2021).

Columns and labels:
Type in all cases: biochemical
MAGL [1] = molecular target: MAGL (Homo sapiens (Human), UniProt Q99685); assay: In vitro competitive activity-based protein profiling, human proteomes (prefrontal cortex or PC3 cell membrane fractions); settings: human proteome; for inhibition at 1 µM: read-out: MAGL % inh. 1 μM (human); for inhibition at 10 µM: read-out: MAGL % inh. (human) @ 10 μM
Procedure: (§1) In Vitro Competitive Activity-Based Protein Profiling.
(§2) Proteomes (mouse brain membrane fraction or cell lysates for mouse assays; human prefrontal cortex or PC3 cell membrane fractions for human assays) (50 μL, 1.0 or 2.0 mg/mL total protein concentration) were preincubated with varying concentrations of inhibitors at 37° C. After 30 min, FP-Rh or JW912 or HT-01 (1.0 μL, 50 μM in DMSO) was added and the mixture was incubated for another 30 min at 37° C. Reactions were quenched with SDS loading buffer (15 μL-4×) and run on SDS-PAGE. Following gel imaging, serine hydrolase activity was determined by measuring fluorescent intensity of gel bands corresponding to MAGL and FAAH using ImageJ 1.43u software.

FAAH [2] = molecular target: FAAH (Homo sapiens (Human), UniProt O00519); assay: as above; settings: human proteome; for inhibition at 1 µM: read-out: FAAH % inh. 1 μM (human)
Procedure: as §1, §2

MAGL [3] = molecular target: MAGL (Mus musculus (Mouse), UniProt O35678); assay: In vitro competitive activity-based protein profiling, mouse proteomes (brain membrane fraction or cell lysates); settings: mouse proteome, read-out: MAGL % inh. 1 μM (mouse)
Procedure: as §1, §2

FAAH [4] = molecular target: FAAH (Mus musculus (Mouse), UniProt O08914); assay: as above; settings: mouse proteome, read-out: FAAH % inh. 1 μM (mouse)
Procedure: as §1, §2

Sequence of FAAH (Mus musculus (Mouse), UniProt O08914) (O08914 whole entry): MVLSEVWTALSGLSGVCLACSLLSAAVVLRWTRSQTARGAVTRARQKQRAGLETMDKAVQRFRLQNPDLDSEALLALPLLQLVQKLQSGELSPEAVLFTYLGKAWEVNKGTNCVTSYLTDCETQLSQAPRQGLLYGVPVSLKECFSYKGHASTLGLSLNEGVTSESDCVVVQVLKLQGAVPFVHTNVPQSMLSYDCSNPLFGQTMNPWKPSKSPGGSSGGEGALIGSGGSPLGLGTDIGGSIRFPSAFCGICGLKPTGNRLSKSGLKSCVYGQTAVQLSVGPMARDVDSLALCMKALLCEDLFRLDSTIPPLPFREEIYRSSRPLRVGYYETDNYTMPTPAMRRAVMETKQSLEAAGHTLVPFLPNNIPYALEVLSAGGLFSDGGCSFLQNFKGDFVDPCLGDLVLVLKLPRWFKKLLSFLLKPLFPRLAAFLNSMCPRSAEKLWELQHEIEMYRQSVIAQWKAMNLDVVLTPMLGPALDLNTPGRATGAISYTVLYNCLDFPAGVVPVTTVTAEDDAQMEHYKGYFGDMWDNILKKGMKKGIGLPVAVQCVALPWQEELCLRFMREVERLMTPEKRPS
Sequence of MAGL (Homo sapiens (Human), UniProt Q99685) (Q99685 whole entry): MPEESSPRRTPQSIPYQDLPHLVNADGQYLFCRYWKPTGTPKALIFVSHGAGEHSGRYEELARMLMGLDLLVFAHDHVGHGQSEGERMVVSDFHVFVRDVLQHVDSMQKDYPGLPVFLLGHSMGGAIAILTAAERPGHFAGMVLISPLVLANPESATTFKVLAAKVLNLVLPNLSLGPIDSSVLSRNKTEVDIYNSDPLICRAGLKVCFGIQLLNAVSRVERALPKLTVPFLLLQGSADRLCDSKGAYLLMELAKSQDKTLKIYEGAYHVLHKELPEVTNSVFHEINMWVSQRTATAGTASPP
Sequence of MAGL (Mus musculus (Mouse), UniProt O35678) (O35678 whole entry): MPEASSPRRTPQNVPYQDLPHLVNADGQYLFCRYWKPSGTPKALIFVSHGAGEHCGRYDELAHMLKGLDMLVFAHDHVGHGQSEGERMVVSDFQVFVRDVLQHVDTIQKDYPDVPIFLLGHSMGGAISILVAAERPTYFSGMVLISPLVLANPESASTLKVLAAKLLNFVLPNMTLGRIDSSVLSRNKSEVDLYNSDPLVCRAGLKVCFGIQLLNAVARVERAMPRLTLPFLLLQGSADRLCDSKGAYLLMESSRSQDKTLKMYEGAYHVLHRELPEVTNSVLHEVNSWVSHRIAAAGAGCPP
Sequence of FAAH (Homo sapiens (Human), UniProt O00519) (O00519 whole entry): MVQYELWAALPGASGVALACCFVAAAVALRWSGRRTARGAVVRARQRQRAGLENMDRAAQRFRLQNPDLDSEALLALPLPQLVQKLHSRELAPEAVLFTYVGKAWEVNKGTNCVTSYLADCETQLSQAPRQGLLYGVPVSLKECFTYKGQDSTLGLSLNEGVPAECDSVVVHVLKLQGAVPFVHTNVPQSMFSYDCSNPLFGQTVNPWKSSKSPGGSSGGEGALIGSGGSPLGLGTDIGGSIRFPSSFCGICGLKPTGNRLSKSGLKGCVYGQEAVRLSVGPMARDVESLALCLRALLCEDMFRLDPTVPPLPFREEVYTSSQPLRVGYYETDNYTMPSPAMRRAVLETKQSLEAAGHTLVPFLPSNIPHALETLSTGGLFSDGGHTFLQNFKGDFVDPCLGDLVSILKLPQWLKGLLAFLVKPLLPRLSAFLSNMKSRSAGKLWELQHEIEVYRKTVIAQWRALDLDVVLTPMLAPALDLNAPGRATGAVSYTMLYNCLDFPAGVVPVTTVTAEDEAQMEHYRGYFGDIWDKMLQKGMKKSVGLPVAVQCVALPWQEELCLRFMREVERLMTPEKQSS

| SMILES | inhibition at 1 µM (MAGL [1]) | inhibition at 1 µM (FAAH [2]) | inhibition at 1 µM (MAGL [3]) | inhibition at 1 µM (FAAH [4]) | IC50 (MAGL [1]) | IC50 (FAAH [2]) | inhibition at 10 µM (MAGL [1]) |
| --- | --- | --- | --- | --- | --- | --- | --- |
| CS(=O)(=O)Nc1ccn(C(=O)N2CCC3(CCN(Cc4ccc(C(F)(F)F)c(N5CCCC5)c4)C3)CC2)n1 [Example 73, N-(1-(2-(3-(Pyrrolidin-1-yl)-4-(trifluoromethyl)benzyl)-2,8-diazaspiro[4.5]decane-8-carbonyl)-1H-pyrazol-3-yl)methanesulfonamide] | > 75% | 0 to 25% | > 75% | 50 to 75% | – | – | – |
| CS(=O)(=O)Nc1ccn(C(=O)N2CCC3(CCN(Cc4ccc(N5CC6COCC6C5)c(Cl)c4)C3)CC2)n1 (stereo not shown) [Example 160, N-(1-(2-(3-Chloro-4-(tetrahydro-1H-furo[3,4-c]pyrrol-5(3H)-yl)benzyl)-2,8-diazaspiro[4.5]decane-8-carbonyl)-1H-pyrazol-3-yl)methanesulfonamide] | 50 to 75% | 25 to 50% | 0 to 25% | 0 to 25% | – | – | – |
| CS(=O)(=O)Nc1ccn(C(=O)N2CCC(Oc3ccc(C(F)(F)F)cc3C(=O)N3CCCC3)CC2)n1 [Example 101, N-(1-(4-(2-(Pyrrolidine-1-carbonyl)-4-(trifluoromethyl)phenoxy)piperidine-1-carbonyl)-1H-pyrazol-3-yl)methanesulfonamide] | > 75% | 0 to 25% | 50 to 75% | 0 to 25% | – | – | – |
| CC(C)(O)COc1cccc(CN2CCN(C(=O)n3ccc(NS(C)(=O)=O)n3)CC2)c1Cl [Example 34, N-(1-(4-(2-Chloro-3-(2-hydroxy-2-methylpropoxy)benzyl)piperazine-1-carbonyl)-1H-pyrazol-3-yl)methanesulfonamide] | > 75% | > 75% | > 75% | > 75% | < 0.1 µM | 0.1 to 1 µM | – |
| CS(=O)(=O)Nc1ccn(C(=O)N2CC3CN(Cc4cccc(OC(F)(F)F)c4)CC3C2)n1 (stereo not shown) [Example 115, N-(1-(5-(3-(Trifluoromethoxy)benzyl)octahydropyrrolo[3,4-c]pyrrole-2-carbonyl)-1H-pyrazol-3-yl)methanesulfonamide] | > 75% | 25 to 50% | 25 to 50% | > 75% | – | – | – |
| CC(=O)Nc1ccn(C(=O)N2CCC3(CC2)CN(Cc2ccc(C(N)=O)c(C(F)(F)F)c2)C3)n1 [Example 126, 4-((7-(3-Acetamido-1H-pyrazole-1-carbonyl)-2,7-diazaspiro[3.5]nonan-2-yl)methyl)-2-(trifluoromethyl)benzamide] | > 75% | 0 to 25% | > 75% | 0 to 25% | – | – | – |
| CS(=O)(=O)Nc1ccn(C(=O)N2CCN(Cc3ccc(Cl)c(N4CC[C@@H](F)C4)c3)CC2)n1 [Example 122, (R)-N-(1-(4-(4-Chloro-3-(3-fluoropyrrolidin-1-yl)benzyl)piperazine-1-carbonyl)-1H-pyrazol-3-yl)methanesulfonamide] | > 75% | 0 to 25% | > 75% | 0 to 25% | – | – | – |
| CS(=O)(=O)Nc1ccn(C(=O)N2CC3CN(Cc4ccc(Cl)c(N5CC6COCC6C5)c4)CC3C2)n1 (stereo not shown) [Example 140, N-(1-(5-(4-chloro-3-(Tetrahydro-1H-furo[3,4-c]pyrrol-5(3H)-yl)benzyl)octahydropyrrolo[3,4-c]pyrrole-2-carbonyl)-1H-pyrazol-3-yl)methanesulfonamide] | 25 to 50% | 0 to 25% | 0 to 25% | 0 to 25% | – | – | – |
| CS(=O)(=O)Nc1ccn(C(=O)N2CCC(Oc3ccc(C(F)(F)F)cc3N3C4CCC3COC4)CC2)n1 [Example 92, N-(1-(4-(2-(3-Oxa-8-azabicyclo[3.2.1]octan-8-yl)-4-(trifluoromethyl)phenoxy)piperidine-1-carbonyl)-1H-pyrazol-3-yl)methanesulfonamide] | > 75% | 0 to 25% | > 75% | 0 to 25% | – | – | – |
| CC(=O)Nc1ccn(C(=O)N2CC3CN(Cc4cccc(OC(F)(F)F)c4)CC3C2)n1 (stereo not shown) [Example 113, N-(1-(5-(3-(Trifluoromethoxy)benzyl)octahydropyrrolo[3,4-c]pyrrole-2-carbonyl)-1H-pyrazol-3-yl)acetamide] | > 75% | 25 to 50% | > 75% | > 75% | – | – | – |
| CS(=O)(=O)Nc1ccn(C(=O)N2CCN(Cc3ccc(C(N)=O)c(C(F)(F)F)c3)CC2)n1 [Example 10, 4-((4-(3-(methylsulfonamido)-1H-pyrazole-1-carbonyl)piperazin-1-yl)methyl)-2-(trifluoromethyl)benzamide] | – | 0 to 25% | 0 to 25% | 0 to 25% | – | – | 50 to 75% |
| CC(=O)Nc1ccn(C(=O)N2CC3CN(Cc4cccc(Oc5ccccc5)c4)CC3C2)n1 (stereo not shown) [Example 173, N-(1-(5-(3-Phenoxybenzyl)octahydropyrrolo[3,4-c]pyrrole-2-carbonyl)-1H-pyrazol-3-yl)acetamide] | – | – | > 75% | > 75% | < 0.1 µM | 0.1 to 1 µM | – |
| CC(=O)Nc1ccn(C(=O)N2CC3CN(Cc4cc(F)cc(Cl)c4)CC3C2)n1 (stereo not shown) [Example 145, N-(1-(5-(3-Chloro-5-fluorobenzyl)octahydropyrrolo[3,4-c]pyrrole-2-carbonyl)-1H-pyrazol-3-yl)acetamide] | > 75% | > 75% | > 75% | > 75% | < 0.1 µM | 0.1 to 1 µM | – |
| CC(C)C(=O)Nc1ccn(C(=O)N2CCN(Cc3ccc(C(F)(F)F)cc3N3CCCC3)CC2)n1 [Example 161, N-(1-(4-(2-(Pyrrolidin-1-yl)-4-(trifluoromethyl)benzyl)piperazine-1-carbonyl)-1H-pyrazol-3-yl)isobutyramide] | – | – | > 75% | 0 to 25% | – | – | – |
| CC(=O)Nc1ccn(C(=O)N2CC3CN(Cc4ccc(N5CCOCC5)c(C(F)(F)F)c4)CC3C2)n1 (stereo not shown) [Example 171, N-(1-(5-(4-Morpholino-3-(trifluoromethyl)benzyl)octahydropyrrolo[3,4-c]pyrrole-2-carbonyl)-1H-pyrazol-3-yl)acetamide] | – | – | > 75% | 50 to 75% | – | – | – |
| CC(=O)Nc1ccn(C(=O)N2CC3CN(Cc4ccc(Cl)cc4Cl)CC3C2)n1 (stereo not shown) [Example 174, N-(1-(5-(2,4-Dichlorobenzyl)octahydropyrrolo[3,4-c]pyrrole-2-carbonyl)-1H-pyrazol-3-yl)acetamide] | – | – | > 75% | 50 to 75% | – | – | – |
| C[C@H]1CN(C(=O)n2ccc(NS(C)(=O)=O)n2)CCN1Cc1cnc(C(F)(F)F)c(N2CCC(F)CC2)c1 [Example 33, (S)—N-(1-(4-((5-(4-fluoropiperidin-1-yl)-6-(trifluoromethyl)pyridin-3-yl)methyl)-3-methylpiperazine-1-carbonyl)-1H-pyrazol-3-yl)methanesulfonamide] | > 75% | – | > 75% | 0 to 25% | – | – | – |
| CC(=O)Nc1ccn(C(=O)N2C[C@H]3C[C@@H](N(C)Cc4ccccc4Cl)C[C@H]3C2)n1 [Example 37, N-(1-((3aR,5r,6aS)-5-((2-Chlorobenzyl)(methyl)amino)octahydrocyclopenta[c]pyrrole-2-carbonyl)-1H-pyrazol-3-yl)acetamide] | – | – | > 75% | > 75% | – | – | – |
| CC(=O)Nc1ccn(C(=O)N2CC3CN(Cc4ccc(Cl)cc4)CC3C2)n1 (stereo not shown) [Example 170, N-(1-(5-(4-Chlorobenzyl)octahydropyrrolo[3,4-c]pyrrole-2-carbonyl)-1H-pyrazol-3-yl)acetamide] | – | – | > 75% | 50 to 75% | – | – | – |
| CC(=O)Nc1ccn(C(=O)N2CC3CN(Cc4ccc(Oc5ccc(Cl)cc5)cc4)CC3C2)n1 (stereo not shown) [Example 44, N-(1-(5-(4-(4-Chlorophenoxy)benzyl)octahydropyrrolo[3,4-c]pyrrole-2-carbonyl)-1H-pyrazol-3-yl)acetamide] | – | – | > 75% | > 75% | – | – | – |
| CS(=O)(=O)Nc1ccn(C(=O)N2CCC(OCc3ccc(N4CCC(F)CC4)c(Cl)c3)CC2)n1 [Example 30, N-(1-(4-((3-chloro-4-(4-fluoropiperidin-1-yl)benzyl)oxy)piperidine-1-carbonyl)-1H-pyrazol-3-yl)methanesulfonamide] | > 75% | – | > 75% | > 75% | – | – | – |
| C[C@@H]1C[C@H](N(C)Cc2ccc(Cl)c(N3CC4COCC4C3)c2)CCN1C(=O)n1ccc(NS(C)(=O)=O)n1 (stereo partly drawn) [Example 27, N-(1-((2R,4R)-4-((4-chloro-3-(tetrahydro-1H-furo[3,4-c]pyrrol-5(3H)-yl)benzyl)(methyl)amino)-2-methylpiperidine-1-carbonyl)-1H-pyrazol-3-yl)methanesulfonamide] | – | – | 0 to 25% | 0 to 25% | – | – | 0 to 25% |
| CS(=O)(=O)Nc1ccn(C(=O)N2CC3CN(Cc4cccc(Oc5ccc(Cl)cc5)c4)CC3C2)n1 (stereo not shown) [Example 41, N-(1-(5-(3-(4-Chlorophenoxy)benzyl)octahydropyrrolo[3,4-c]pyrrole-2-carbonyl)-1H-pyrazol-3-yl)methanesulfonamide] | – | – | 0 to 25% | > 75% | – | – | – |
